Test results from ChEMBL document CHEMBL1124314, “Development of phosphonate derivatives of gadolinium chelates for NMR imaging of calcified soft tissues” (J Med Chem, 1989).

Legend:
[1] = species: Rattus norvegicus; experiment: Biodistribution in rat muscle in the presence of NCAGd/0.01 M lig; type: ADME, organism-based, Muscle tissue; details: in vivo
[2] = Ratio of uptake of [GD] in bone 1 hr post injection with 0.01 (N) to that of blood
[3] = species: Rattus norvegicus; experiment: Uptake of [GD] in bone 1 hr post injection with NCA GD dose; type: functional, Bone element
[4] = species: Rattus norvegicus; experiment: Biodistribution in rat bone in the presence of NCAGd/0.01 M lig; type: ADME, organism-based, Bone element; details: in vivo
[5] = Ratio of uptake of [GD] in bone 1 hr post injection with 0.01 to that of muscle; type: functional
[6] = species: Rattus norvegicus; experiment: Biodistribution in rat spleen in the presence of NCAGd/0.01 M lig; type: ADME, organism-based; details: in vivo
[7] = Ratio of uptake of [GD] in bone 1 hr post injection with 0.01 (N) to that of muscle
[8] = species: Rattus norvegicus; experiment: Biodistribution in rat heart in the presence of NCAGd/0.01 M lig; type: ADME, organism-based; details: in vivo
[9] = species: Rattus norvegicus; experiment: Uptake of [GD] in bone 1 h post injection with 0.01 of the compound; type: functional, Bone element
[10] = species: Rattus norvegicus; experiment: Uptake of [GD] in bone 1 hr post injection with 0.01 (N) of the compound
[11] = species: Rattus norvegicus; experiment: Biodistribution in rat kidney in the presence of NCAGd/0.01 M lig; type: ADME, organism-based; details: in vivo
[12] = species: Rattus norvegicus; experiment: Biodistribution in rat liver by in the presence of NCAGd/0.01 M lig; type: ADME, organism-based; details: in vivo
[13] = species: Rattus norvegicus; experiment: Biodistribution in rat blood in the presence of NCAGd/0.01 M lig; type: ADME, organism-based; details: in vivo
[14] = Ratio of uptake of [GD] in bone 1 hr post injection with 0.002 to that of muscle; type: functional
[15] = species: Rattus norvegicus; experiment: Uptake of [GD] in bone 1 hr post injection with 0.0005 of the compound; type: functional, Bone element
[16] = Ratio of uptake of [GD] in bone 1 hr post injection with 0.005 to that of blood; type: functional
[17] = Ratio of uptake of [GD] in bone 1 hr post injection with NCA GD dose to that of blood; type: functional
[18] = species: Rattus norvegicus; experiment: Uptake of [GD] in bone 1 hr post injection with 0.002 of the compound; type: functional, Bone element
[19] = Ratio of uptake of [GD] in bone 1 hr post injection with 0.005 to that of muscle; type: functional
[20] = Ratio of uptake of [GD] in bone 1 hr post injection with 0.002 to that of blood; type: functional
[21] = Ratio of uptake of [GD] in bone 1 hr post injection with 0.0005 to that of blood; type: functional
[22] = species: Rattus norvegicus; experiment: Uptake of [GD] in bone 1 hr post injection with 0.005 of the compound; type: functional, Bone element
[23] = Ratio of uptake of [GD] in bone 1 hr post injection with 0.0005 to that of muscle; type: functional
[24] = Ration of Uptake of [GD] in bone 1 hr post injection with NCA GD dose to that of muscle; type: functional
[25] = Uptake of [GD] in bone 1 hr post injection with 0.01 to that of muscle; type: functional, Muscle tissue
[26] = Ratio of uptake of [GD] in bone 1 hr post injection with 0.05 to that of blood; type: functional
[27] = Ratio of uptake of [GD] in bone 1 hr post injection with 0.05 to that of muscle; type: functional
[28] = species: Rattus norvegicus; experiment: Uptake of [GD] in bone 1 hr post injection with 0.05 of the compound; type: functional, Bone element
[29] = Ratio of uptake of [GD] in bone 1 hr post injection with 0.10 to that of blood; type: functional
[30] = species: Rattus norvegicus; experiment: Uptake of [GD] in bone 1 hr post injection with 0.10 of the compound; type: functional, Bone element
[31] = Ratio of uptake of [GD] in bone 1 hr post injection with 0.01 to that of blood; type: functional
[32] = Ratio of uptake of [GD] in bone 1 hr post injection with 0.10 to that of muscle; type: functional

Compound `CC(CO)NCCNC(C)C(C)O` (stereo unspecified) has an ID/organ [1] of 6.25%, a Ratio [2] of 0.18% and an ID [3] of 59.6%. For the same compound, the ID/organ [4] was 59.6%, the Ratio [5] was 1.22% and the ID/organ [6] was 0.13%. The Ratio [7] was 1.55%, the ID/organ [8] was 0.315% and the ID [9] was 6.88%. For the same compound, the ID [10] was 3.33%, the ID/organ [11] was 2.75% and the ID/organ [12] was 21.5%. The ID/organ [13] was 2.31%.

`CC(O)C(C)NCCNC(C)C(C)O` (stereo unspecified) showed a Ratio [14] of 1.81%, an ID [15] of 6.54% and an ID/organ [1] of 5.85%. For the same compound, the ID [3] was 51.4%, the ID/organ [4] was 51.4% and the Ratio [16] was 0.167%. It also gave an ID/organ [6] of 0.44%, a Ratio [17] of 16.5% and an ID [18] of 6.9%. For the same compound, the Ratio [19] was 1.67%, the ID/organ [8] was 0.295% and the Ratio [20] was 0.206%. It also gave a Ratio [21] of 0.234%, an ID [22] of 5.07% and a Ratio [23] of 2.19%. The ID/organ [11] was 2.87%, the ID/organ [12] was 28.5% and the Ratio [24] was 8.81%. For the same compound, the ID/organ [13] was 3.12%.

`O=C(O)CN(CCN(CC(=O)O)CC(=O)O)CCN(CC(=O)O)CC(=O)NCCCP(=O)(O)OP(=O)(O)O` showed a Ratio [25] of 5.39, a Ratio [26] of 6.42 and a Ratio [27] of 3.38. For the same compound, the ID [28] was 17.6%, the Ratio [29] was 8.56 and the ID [30] was 13.7%. The Ratio [31] was 2.12, the ID [9] was 22.9% and the Ratio [32] was 2.76.
